Experimental data published in US20240228506A1, “RIPK1 INHIBITORS AND METHODS OF USE” (Merck Sharp & Dohme LLC, priority 2021, published 2024).

Biological target: T1, GST-RIPK1 (recombinant GST-RIPK1 kinase domain (residues 1-327)) (Homo sapiens, UniProt Q13546)
T1 construct: recombinant GST-RIPK1 kinase domain (residues 1-327) enzyme; made in house; host or cells: baculovirus-transfected Sf21 insect cells
T1 sequence (Q13546 1-327): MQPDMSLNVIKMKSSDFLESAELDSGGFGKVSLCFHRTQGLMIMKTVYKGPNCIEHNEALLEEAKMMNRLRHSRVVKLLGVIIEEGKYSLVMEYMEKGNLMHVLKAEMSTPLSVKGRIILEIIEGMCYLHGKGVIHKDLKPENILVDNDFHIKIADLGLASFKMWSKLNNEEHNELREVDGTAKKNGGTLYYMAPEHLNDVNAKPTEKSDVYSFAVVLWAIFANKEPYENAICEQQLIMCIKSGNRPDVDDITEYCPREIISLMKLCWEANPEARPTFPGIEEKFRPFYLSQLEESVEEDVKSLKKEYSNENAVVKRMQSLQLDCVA
Experiment: RIPK1-ADP-Glo enzymatic assay
Type: biochemical
Details: 25 nM GST-RIPK1, 300 μM ATP, 3 μM dephosphorylated-MBP; 30 minutes pre-incubation, 150 minutes reaction; ten-point titration
Protocol: The enzymatic activity of RIPK1 is measured using an assay derived from ADP-Glo kit (Promega™), which provides a luminescent-based ADP detection system. Specifically, the ADP generated by RIPK1 kinase is proportionally detected as luminescent signals in a homogenous fashion. In this context, the assessment of the inhibitory effect of small molecules (EC50) is measured by the effectiveness of the compounds to inhibit the ATP to ADP conversion by RIPK1. In this assay, the potency (EC50) of each compound was determined from a ten-point (1:3 serial dilution; top compound concentration of 100000 nM) titration curve using the following outlined procedure. To each well of a white ProxiPlus 384 well-plate, […] of compound (1% DMSO in final assay volume of 3 μL) was dispensed, followed by the addition of 2 μL of 1× assay buffer (25 mM Hepes 7.3, 20 mM MgCl2, 50 mM NaCl, 1 mM DTT, 0.005% Tween20, and 0.02% BSA) containing 37.5 nM of GST-RIPK1 (recombinant GST-RIPK1 kinase domain (residues 1-327) enzyme produced from baculovirus-transfected Sf21 cells: MW=62 kDa). Plates were placed in an ambient temperature humidified chamber for a 30 minutes pre-incubation with compound. Subsequently, each reaction was initiated by the addition of 1 μL 1×assay buffer containing 900 μM ATP and […]. The final reaction in each well of 3 μL consists of 25 nM of GST-RIPK1, 300 μM ATP, and 3 μM dephosphorylated-MBP. Kinase reactions were allowed to proceed for 150 minutes prior to adding ADP-Glo reagents per Promega's outlined kit protocol. Dose-response curves were generated by plotting percent effect (% product conversion; Y-axis) vs. Log10 compound concentrations (X-axis). EC50 values were calculated using a non-linear regression, four-parameters sigmoidal dose-response model.

Row | IC50 [nM] | Compound
1 | 56 | CC(C)(C(=O)N1C[C@@H]2C[C@H]1c1cncc(C#Cc3ccc(F)cc3)c1O2)C(F)F [Compound 2-41, 3,3-difluoro-1-((2S,5S)-9-((4-fluorophenyl)ethynyl)-2,3-dihydro-2,5-methanopyrido[3,4-f][1,4]oxazepin-4(5H)-yl)-2,2-dimethylpropan-1-one]
2 | 98 | CC(C)(C(=O)N1C[C@@H]2C[C@H]1c1cncc(C#CCc3ccccc3)c1O2)C(F)F [Compound 2-46, 3,3-difluoro-2,2-dimethyl-1-((2S,5S)-9-(3-phenylprop-1-yn-1-yl)-2,3-dihydro-2,5-methanopyrido[3,4-f][1,4]oxazepin-4(5H)-yl)propan-1-one]
3 | 117 | C[C@]1(C(=O)N2C[C@@H]3C[C@H]2c2cncc(C#N)c2S3)C[C@H](C#N)C1 [Compound 4-8, (2S,5S)-4-((1r,3S)-3-cyano-1-methylcyclobutane-1-carbonyl)-2,3,4,5-tetrahydro-2,5-methanopyrido[3,4-f][1,4]thiazepine-9-carbonitrile]
4 | 73 | O=C(N1C[C@@H]2C[C@H]1c1cncc(C#Cc3ccccn3)c1O2)C12CCC(C(F)(F)F)(CC1)C2 [Compound 2-60, ((2S,5S)-9-(pyridin-2-ylethynyl)-2,3-dihydro-2,5-methanopyrido[3,4-f][1,4]oxazepin-4(5H)-yl)(4-(trifluoromethyl)bicyclo [2.2.1]heptan-1-yl)methanone]
5 | 84 | N#Cc1cncc2c1O[C@H]1C[C@@H]2N(C(=O)C23CC(F)(C2)C3)C1 [Compound 1-92, (2S,5S)-4-(3-fluorobicyclo[1.1.1]pentane-1-carbonyl)-2,3,4,5-tetrahydro-2,5-methanopyrido[3,4-f][1,4]oxazepine-9-carbonitrile]
6 | 84 | Cc1ncc2c(c1C#N)O[C@H]1C[C@@H]2N(C(=O)C(C)(C)C(F)F)C1 [Compound 1-18, (2S,5S)-4-(3,3-difluoro-2,2-dimethylpropanoyl)-8-methyl-2,3,4,5-tetrahydro-2,5-methanopyrido[3,4-f][1,4]oxazepine-9-carbonitrile]
7 | 13 | Cc1ncc2c(c1C#N)O[C@H]1C[C@@H]2N(C(=O)C23CCC(C(F)(F)F)(CC2)C3)C1 [Compound 1-82, (2S,5S)-8-methyl-4-(4-(trifluoromethyl)bicyclo[2.2.1]heptane-1-carbonyl)-2,3,4,5-tetrahydro-2,5-methanopyrido[3,4-f](1,4]oxazepine-9-carbonitrile]
8 | 59 | Cc1ncc2c(c1F)O[C@H]1C[C@@H]2N(C(=O)C23CCC(F)(CC2)C3)C1 [Compound 2-28, ((2S,5S)-9-fluoro-8-methyl-2,3-dihydro-2,5-methanopyrido[3,4-f][1,4]oxazepin-4(5H)-yl)(4-fluorobicyclo[2.2.1]heptan-1-yl)methanone]
9 | 12 | O=C(N1C[C@@H]2C[C@H]1c1cncc(C#Cc3cccnc3)c1O2)C12CCC(C(F)(F)F)(CC1)C2 [Compound 2-58, ((2S,5S)-9-(pyridin-3-ylethynyl)-2,3-dihydro-2,5-methanopyrido[3,4-f][1,4]oxazepin-4(5H)-yl)(4-(trifluoromethyl)bicyclo [2.2.1]heptan-1-yl)methanone]
10 | 15 | CC(C)(C(=O)N1C[C@@H]2C[C@H]1c1cncc(C#Cc3ccc4nccnc4c3)c1O2)C(F)F [Compound 2-34, 3,3-Difluoro-2,2-dimethyl-1-((2S,5S)-9-(quinoxalin-6-ylethynyl)-2,3-dihydro-2,5-methanopyrido[3,4-f][1,4]oxazepin-4(5H)-yl)propan-1-one]
11 | 317 | CC(C)(C(=O)N1C[C@@H]2C[C@H]1c1cc(F)cnc1O2)C(F)F [Compound 3-1, 3,3-Difluoro-1-((2S,5S)-7-fluoro-2,3-dihydro-2,5-methanopyrido[3,2-f][1,4]oxazepin-4(5H)-yl)-2,2-dimethylpropan-1-one]
12 | 197 | CC(C)(C(=O)N1C[C@@H]2C[C@H]1c1cncc(C#CCCc3ccccc3)c1O2)C(F)F [Compound 2-110, 3,3-difluoro-2,2-dimethyl-1-((2S,5S)-9-(4-phenylbut-1-yn-1-yl)-2,3-dihydro-2,5-methanopyrido[3,4-f][1,4]oxazepin-4(5H)-yl)propan-1-one]
